Measurements: the NIST ThermoML archive (doi:10.1021/acs.jced.6b00687)

Assay: xn = mol fraction of the nth substance listed
Conditions: Gas, Buoyancy - hydrostatic balance with magnetic suspension - two sinkers

[Ar] [argon] + O=C=O
Conditions	mass density [kg/m3]
273.15 K, 510.11 kPa, x2 = 0.7509	9.89648
273.15 K, 511.42 kPa, x2 = 0.5	9.60258
273.15 K, 1005.7 kPa, x2 = 0.7509	20.0055
273.15 K, 1013.1 kPa, x2 = 0.5	19.3275
273.15 K, 2007.3 kPa, x2 = 0.7509	42.2195
273.15 K, 2996.7 kPa, x2 = 0.7509	67.1561
273.15 K, 3008.4 kPa, x2 = 0.5	61.4185
273.15 K, 4022.5 kPa, x2 = 0.7509	97.4841
273.15 K, 4488.6 kPa, x2 = 0.7509	113.378
273.15 K, 5000.6 kPa, x2 = 0.7509	133.062
273.15 K, 5017 kPa, x2 = 0.5	110.665
273.15 K, 6031.1 kPa, x2 = 0.5	138.861
273.15 K, 6410 kPa, x2 = 0.5	150.086
283.15 K, 508.18 kPa, x2 = 0.7509	9.48215
283.15 K, 1002 kPa, x2 = 0.7509	19.109
283.15 K, 2002.5 kPa, x2 = 0.7509	40.0616
283.15 K, 2989.1 kPa, x2 = 0.7509	63.047
283.15 K, 3992.2 kPa, x2 = 0.7509	89.5274
283.15 K, 4988.1 kPa, x2 = 0.7509	120.07
283.15 K, 6073.3 kPa, x2 = 0.7509	160.561
283.15 K, 6588 kPa, x2 = 0.7509	183.67
283.15 K, 7263.8 kPa, x2 = 0.7509	219.753
293.15 K, 502.06 kPa, x2 = 0.7509	9.02478
293.15 K, 1001.8 kPa, x2 = 0.7509	18.3618
293.15 K, 2024.4 kPa, x2 = 0.7509	38.7149
293.15 K, 3001.1 kPa, x2 = 0.7509	60.0081
293.15 K, 4009 kPa, x2 = 0.7509	84.353
293.15 K, 4996.8 kPa, x2 = 0.7509	111.184
293.15 K, 6024 kPa, x2 = 0.7509	143.207
293.15 K, 7049 kPa, x2 = 0.7509	180.86
293.15 K, 8016.8 kPa, x2 = 0.7509	223.61
293.15 K, 9051.1 kPa, x2 = 0.7509	279.404
298.15 K, 505.28 kPa, x2 = 0.5	8.65443
298.15 K, 1014.6 kPa, x2 = 0.5	17.5824
298.15 K, 2019.2 kPa, x2 = 0.5	35.8258
298.15 K, 3020.7 kPa, x2 = 0.5	54.9064
298.15 K, 4024.4 kPa, x2 = 0.5	75.0005
298.15 K, 5017 kPa, x2 = 0.5	95.8895
298.15 K, 6025.4 kPa, x2 = 0.5	118.229
298.15 K, 7045.2 kPa, x2 = 0.5	142.007
298.15 K, 8014 kPa, x2 = 0.5	165.743
323.15 K, 514.24 kPa, x2 = 0.7509	8.34326
323.15 K, 516.98 kPa, x2 = 0.4998	8.14761
323.15 K, 1021 kPa, x2 = 0.7509	16.796
323.15 K, 1022 kPa, x2 = 0.4998	16.244
323.15 K, 2012.2 kPa, x2 = 0.7509	34.0421
323.15 K, 3034 kPa, x2 = 0.4998	49.9179
323.15 K, 3036.1 kPa, x2 = 0.7509	52.9514
323.15 K, 4037.8 kPa, x2 = 0.7509	72.6588
323.15 K, 5040.2 kPa, x2 = 0.4998	85.8585
323.15 K, 5061.8 kPa, x2 = 0.7509	94.214
323.15 K, 6055.5 kPa, x2 = 0.7509	116.646
323.15 K, 7040 kPa, x2 = 0.4998	124.127
323.15 K, 7054.8 kPa, x2 = 0.7509	140.911
323.15 K, 8053.7 kPa, x2 = 0.7509	167.037
323.15 K, 9016.6 kPa, x2 = 0.4998	164.336
323.15 K, 9045 kPa, x2 = 0.7509	195.026
